The values that follow are results of earlier work, collected in patent US20220361462A1, “ANIMAL MODEL FOR NEURODEGENERATIVE DISORDERS” (NEURO-BIO LTD, priority 2019, published 2022).

No end group written: not given here.

This series relates to cell lines. As to conditions: previously shown by the inventors.

As to “NBP-14: candidate modulator of the α7-nAChR, the cyclized form of T14, cyclic SEQ ID No:4 (AEFHRWSSYMVHWK; not fully specified; also: cyclised, mode not given here; listed as Homo sapiens)”, the “effect on AD-like phenotype promoted by AChE-derived peptide on cell lines” value is reported as “blocked”.
